“And” between values parts separate entries of the source, which are not always exact repeats. Equal values may be shown once. Read-outs that look alike come from different tables or passages of the source. Marks after values point to notes of the source that are not given here.
Tests used:
[1] = DPPH radical scavenging assay; conditions: Trolox equivalent antioxidant capacity, mean ± SD, n ≥ 3
Description: The experiment was carried out as previously described. […] Thereafter, the absorbance was measured using a microplate reader (EL800, Bio-Tek Instruments, Winooski, VT, USA) at 570 nm.

[2] = ABTS radical scavenging assay; conditions: Trolox equivalent antioxidant capacity, mean ± SD, n ≥ 3
Description: The experiment was conducted as previously described. In brief, 3.5 mM of potassium persulfate aqueous solution was used to prepare 0.2 mM of ABTS diammonium salt. The solution was diluted 10-fold using distilled water and allowed to produce ABTS radicals (ABTS^+) by keeping the solution in the dark for 14 h at room temperature. […] Equation (1) was used to calculate the ABTS^+ scavenging activity (%), where Acontrol is the absorbance of ABTS^+ solution free of samples, Asample is the absorbance of ABTS^+ solution incubated with a sample, Ablank1 is the absorbance of the test sample free of ABTS^+ solution, and Ablank2 is the absorbance of the diluted potassium persulfate solution.

[3] = Oxygen radical absorbance capacity (ORAC) assay; conditions: Trolox equivalent antioxidant capacity, mean ± SD, n ≥ 3
Description: The oxygen radical absorbance capacity (ORAC) assay was performed as previously described. Briefly, 0. […] Next, 60 µL of AAPH (40 mM) was added to generate peroxyl radicals to initiate the reaction.

[4] = Hypochlorous acid (HOCl) scavenging assay
Description: The HOCl scavenging assay was adapted from a previous study using 1,8-diaminonaphthalene as a fluorescence probe for hypochlorite. […] Next, the fluorescence intensity (λex = 360 ± 20 nm, λem = 460 ± 20 nm) was immediately measured using a microplate fluorescence reader (FLx800; Bio-Tek, Winooski, VT, USA). Trolox (final concentration 25–100 µg/mL) was used as a reference antioxidant.

[5] = biological target: T1, rat lens AR homogenate (aldose reductase) (Rattus norvegicus, UniProt P07943); assay: AR inhibition assay; type: biochemical, Sprague–Dawley rats
T1 construct: the lenses were removed from the eyes, ground in a mortar; from tissue; host or cells: lens of Sprague–Dawley rats
Description: The eyes of 10-week Sprague–Dawley rats (250–280 g) were removed and frozen at −70 °C before use. Thereafter, the lenses were removed from the eyes, ground in a mortar (precooled at −70 °C), and extracted using 0.1 M PBS of pH 6.2 (around 0.5 mL of buffer per two frozen rat lenses).
The AR inhibitory activities of the extract and the separated compounds were determined as described previously. […] Next, the reaction was initiated by adding 20 µL of the substrate (DL-glyceraldehyde dimmer, 25 mM in 0.1 M PBS of pH 7.0), and the values were further measured for 6 min at 340 nm (OD340) using an Epoch microplate spectrophotometer (BioTek Instruments, Winooski, VT, USA). […] The DMSO used for sample preparation was less than 0.4% (v/v) in the reaction system.

[6] = Partition coefficient (K upper/lower) in biphasic CCC solvent systems; type: physicochemical
Description: The solvent system was screened via HPLC and evaluated according to the partition coefficient (K value) of the target compounds on the principle introduced by Ito [32]. Briefly, four solvent systems comprising EtOAc, n-BuOH, […] solution to 29 mM, and then the corresponding K values of the target compounds under acidic (Kacid) or basic (Kbase) conditions were determined, as previously described: each acidified or basified solvent system was partitioned to upper layer and lower layer. Thereafter, the extract (about 1–2 mg) was prepared in a 1.5 mL tube and dissolved by adding equal volumes (each 500 µL) of the upper layer and lower layers, which were mixed by a vortex mixer and centrifuged for about 20 s using a C1301 Mini Centrifuge (Labnet International, South Korea). Next, the upper and lower phase sample solutions were respectively pipetted (each 200 µL) into a new 1.5 mL-tube and evaporated by nitrogen gas. Each sample residue was redissolved using 200 µL of MeOH and subjected to HPLC analysis with an injection volume of 20 µL. The K value was calculated as K = Aupper/Alower, where Aupper and Alower are the HPLC peak areas of the target component in the upper and lower phases, respectively.

[7] = read-out: AR inhibitory Activity Inhibition (%)
[8] = EtOAc/H2O, 1:1, 208 mM formic acid
[9] = EtOAc/n-BuOH/H2O, 2:3:5, 30 mM ammonia
[10] = EtOAc/n-BuOH/H2O, 2:3:5, 208 mM formic acid
[11] = EtOAc/n-BuOH/H2O, 3:2:5, 30 mM ammonia
[12] = EtOAc/n-BuOH/H2O, 3:2:5, 208 mM formic acid
[13] = EtOAc/n-BuOH/H2O, 4:1:5, 30 mM ammonia
[14] = EtOAc/n-BuOH/H2O, 4:1:5, 208 mM formic acid
[15] = rat lens AR, read-out: AR inhibitory Activity IC50

Row | SMILES | TE, DPPH [1] | TE, ABTS [2] | TE, ORAC [3] | HOCl Scavenging Activity Inhibition (%) ([4]; 3.125 µM) | HOCl Scavenging Activity Inhibition (%) ([4]; 6.25 µM) | HOCl Scavenging Activity Inhibition (%) ([4]; 12.5 µM) | IC50 ([4]; linear regression) [nM] | inhibition at 0.098 µM [5, 7] [%] | inhibition at 0.195 µM [5, 7] [%] | inhibition at 0.391 µM [5, 7] [%] | K(upper/lower) Value ([6]; EtOAc/H2O, 1:1, 30 mM ammonia) | K(upper/lower) Value [6, 8] | K(upper/lower) Value [6, 9] | K(upper/lower) Value [6, 10] | K(upper/lower) Value [6, 11] | K(upper/lower) Value [6, 12] | K(upper/lower) Value [6, 13] | K(upper/lower) Value [6, 14] | IC50 [5, 15] [nM] | also measured
1 | O=C(/C=C/c1ccc(O)c(O)c1)O[C@@H]1C[C@](O)(C(=O)O)C[C@@H](OC(=O)/C=C/c2ccc(O)c(O)c2)[C@H]1O [3,5-diCQA (5), 3,5-di-O-caffeoylquinic acid] | 0.86 ± 0.08 ^c µmol Trolox Equivalents Per µmol Compound | 0.89 ± 0.05 ^d µmol Trolox Equivalents Per µmol Compound | 2.13 ± 0.07 ^b µmol Trolox Equivalents Per µmol Compound | 49.56 ± 1.23 | 56.13 ± 3.01 | 62.86 ± 1.23 | 2930 | 35.4 ± 1.33 | 62.3 ± 1.33 | 75.6 ± 1.33 | 0.01 | 7.71 | 0.12 | 38.56 | 0.01 | 35.91 | 0.01 | 14.23 |  | 
2 | O=C(/C=C/c1ccc(O)c(O)c1)O[C@@H]1C[C@@](O)(C(=O)O)C[C@@H](O)[C@@H]1O [3-CQA (1), 3-O-caffeoylquinic acid] |  |  |  |  |  |  |  |  |  |  | 0.02 | 0.49 | 0.01 | 2.49 | 0.05 | 2.03 | 0.00 | 1.36 |  | inhibition at 1.5625 µM ([5]; 1.5625 µM, read-out: AR inhibitory Activity Inhibition (%)): 29.4 ± 3.4%; inhibition at 3.125 µM ([5]; 3.125 µM, read-out: AR inhibitory Activity Inhibition (%)): 45.8 ± 1.75%; inhibition at 6.25 µM ([5]; 6.25 µM, read-out: AR inhibitory Activity Inhibition (%)): 60.1 ± 1.22%; K(upper/lower) Value ([6]; n-BuOH/H2O, 1:1): 0.04; K(upper/lower) Value ([6]; n-BuOH/H2O, 1:1 + 8.7 mM acetic acid): 0.73
3 | C[C@@H]1O[C@@H](Oc2c(-c3ccc(O)c(O)c3)oc3cc(O)cc(O)c3c2=O)[C@H](O)[C@H](O)[C@H]1O [Quercitrin, quercitrin, reference compound] |  |  |  |  |  |  |  |  |  |  |  |  |  |  |  |  |  |  |  | IC50 ([5]; AR Inhibitory Activity IC50, rat lens AR): 103 nM; IC50 ([5]; AR inhibitory Activity IC50, rat lens AR): 102 nM and 100 nM; inhibition at 0.056 µg/mL [5, 7]: 62.33 ± 0.44%; inhibition at 0.063 µM [5, 7]: 32.6 ± 2.7%; inhibition at 0.112 µg/mL [5, 7]: 74.6 ± 1.11%; inhibition at 0.125 µM [5, 7]: 62.33 ± 0.44%; inhibition at 0.25 µM [5, 7]: 74.6 ± 1.11%
4 | Cc1c(C)c2c(c(C)c1O)CCC(C)(C(=O)O)O2 (stereo not drawn) [Trolox, reference compound] |  |  |  |  |  |  | 34000 |  |  |  |  |  |  |  |  |  |  |  |  | HOCl Scavenging Activity Inhibition (%) ([4]; 6.25 µg/mL): 40.76 ± 0.39%; HOCl Scavenging Activity Inhibition (%) ([4]; 12.5 µg/mL): 66.53 ± 2.54%; HOCl Scavenging Activity Inhibition (%) ([4]; 25 µM): 40.76 ± 0.39%; HOCl Scavenging Activity Inhibition (%) ([4]; 25 µg/mL): 97.07 ± 5.45%; HOCl Scavenging Activity Inhibition (%) ([4]; 50 µM): 66.53 ± 2.54%; HOCl Scavenging Activity Inhibition (%) ([4]; 100 µM): 97.07 ± 5.45%; HOCl Scavenging Activity IC50 ([4]; linear regression): 8.52 µg/mL
5 | O=C(/C=C/c1ccc(O)c(O)c1)O[C@@H]1[C@H](O)C[C@@](O)(C(=O)O)C[C@H]1OC(=O)/C=C/c1ccc(O)c(O)c1 [4,5-diCQA (6), 4,5-di-O-caffeoylquinic acid] | 1.23 ± 0.07 ^a µmol Trolox Equivalents Per µmol Compound | 1.22 ± 0.03 ^b µmol Trolox Equivalents Per µmol Compound | 3.70 ± 0.34 ^a µmol Trolox Equivalents Per µmol Compound | 48.80 ± 5.62 | 51.23 ± 2.14 | 65.80 ± 4.06 | 4610 | 23.7 ± 2.7 | 44.4 ± 4.45 | 65.9 ± 2.21 | 0.01 | 12.24 | 0.13 | 45.95 | 0.05 | 41.13 | 0.01 | 22.17 | 230 | 
6 | O=C(/C=C/c1ccc(O)c(O)c1)O[C@@H]1C[C@](O)(C(=O)O)C[C@@H](O)[C@H]1O [5-CQA (2), 5-O-caffeoylquinic acid] |  |  |  |  |  |  |  |  |  | 30.8 ± 2.18 | 0.01 | 0.95 | 0.01 | 6.86 | 0.03 | 5.48 | 0.01 | 2.43 | 910 | inhibition at 0.781 µM ([5]; 0.781 µM, read-out: AR inhibitory Activity Inhibition (%)): 44.2 ± 1.17%; inhibition at 1.563 µM ([5]; 1.563 µM, read-out: AR inhibitory Activity Inhibition (%)): 63.8 ± 2.55%
7 | O=C(/C=C/c1ccc(O)c(O)c1)O[C@H]1[C@H](O)C[C@](O)(C(=O)O)C[C@H]1OC(=O)/C=C/c1ccc(O)c(O)c1 [3,4-diCQA (4), 3,4-di-O-caffeoylquinic acid] | 1.09 ± 0.09 ^b µmol Trolox Equivalents Per µmol Compound | 1.06 ± 0.06 ^c µmol Trolox Equivalents Per µmol Compound | 3.26 ± 0.10 ^a µmol Trolox Equivalents Per µmol Compound | 46.68 ± 2.87 | 50.28 ± 0.19 | 59.15 ± 1.19 | 5780 | 18.9 ± 2.43 | 50.4 ± 3.34 | 68.67 ± 0.68 | 0.02 | 3.49 | 0.04 | 20.24 | 0.03 | 16.14 | 0.02 | 4.86 | 220 | 
8 | O=c1c(O)c(-c2ccc(O)c(O)c2)oc2cc(O)cc(O)c12 [Quercetin, quercetin, reference compound] |  |  |  |  |  |  |  |  |  |  |  |  |  |  |  |  |  |  |  | inhibition at 1.889 µg/mL [5, 7]: 34.8 ± 0.51%; inhibition at 3.778 µg/mL [5, 7]: 46 ± 4.49%; inhibition at 6.25 µM [5, 7]: 34.8 ± 0.51%; inhibition at 7.556 µg/mL [5, 7]: 67 ± 3.22%; inhibition at 12.5 µM [5, 7]: 46 ± 4.49%; inhibition at 25 µM [5, 7]: 67 ± 3.22%
9 | COc1ccc(-c2cc(=O)c3c(O)cc(O)cc3o2)cc1 [Acacetin (8), acacetin] |  |  |  |  |  |  |  |  |  |  |  |  |  |  |  |  |  |  |  | inhibition at 25 µM ([5]; 25 µM, read-out: AR inhibitory Activity Inhibition (%)): 12.3 ± 4.22%; inhibition at 50 µM ([5]; 50 µM, read-out: AR inhibitory Activity Inhibition (%)): 24 ± 0.63%; inhibition at 100 µM ([5]; 100 µM, read-out: AR inhibitory Activity Inhibition (%)): 36.3 ± 3.78%
10 | CC(/C=C1\SC(=S)N(CC(=O)O)C1=O)=C\c1ccccc1 [Epalrestat, epalrestat, reference compound] |  |  |  |  |  |  |  |  |  |  |  |  |  |  |  |  |  |  |  | inhibition at 0.01 µg/mL [5, 7]: 21.7 ± 1.25%; inhibition at 0.02 µg/mL [5, 7]: 79.3 ± 1.35%; inhibition at 0.031 µM [5, 7]: 21.7 ± 1.25%; inhibition at 0.04 µg/mL [5, 7]: 91.8 ± 1.84%; inhibition at 0.063 µM [5, 7]: 79.3 ± 1.35%; inhibition at 0.125 µM [5, 7]: 91.8 ± 1.84%
